The values that follow come from ChEMBL document CHEMBL1136826, “A new synthesis of cytoxazone and its diastereomers provides key initial SAR information” (Bioorg Med Chem Lett, 2003).

Molecules are shown by their SMILES.

Assay [1] in a line: Inhibitory activity against IL-10 on stimulated human peripheral blood mononuclear cells at 30 uM concentration. The class given is functional.
Assay [2] is described as follows: Inhibitory activity against IL-5 on stimulated human peripheral blood mononuclear cells at 30 uM concentration. The class given is functional.
Assay [3] is described as follows: Inhibitory activity against IL-4 on stimulated human peripheral blood mononuclear cells at 30 uM concentration. The class given is functional.
The species named for a further assay is Mus musculus. Kind of assay: Inhibitory activity against blockage secretion of IL-10 in pokeweed mitogen (PWN)-stimulated murine splenocytes. The class given is functional, organism-based.
A short description of assay [4]: Inhibitory activity against IL-2 on stimulated human peripheral blood mononuclear cells at 30 uM concentration. The class given is functional.

Broadly, the inhibition is the drop in the measured response relative to a control, in per cent. Read a high inhibition as strong suppression. As a reminder, the IC50 is the concentration that gives 50% inhibition. A higher IC50 goes with a need for much substance.

On to `COc1ccc([C@H]2NC(=O)O[C@H]2CO)cc1`, for which the inhibition at 30 µM came to 94% in assay [1], 66% in assay [2], 73% in assay [3] and 19% in assay [4]. Besides, the IC50 in the assay filed under Mus musculus is 10 µM.
